Source: article PMC12668310, “High‐Throughput Synthesis and Screening of a Cyanimide Library Identifies Selective Inhibitors of ISG15‐Specific Protease mUSP18” (Angewandte Chemie (International Ed. in English), 2025)
Read-outs that look alike come from different tables or passages of the source.

Target: T1, mUSP18 (Mus musculus, UniProt Q9WTV6)
T1 construct: (46-368); His-tag (N); made in house
T1 sequence (Q9WTV6 46-368): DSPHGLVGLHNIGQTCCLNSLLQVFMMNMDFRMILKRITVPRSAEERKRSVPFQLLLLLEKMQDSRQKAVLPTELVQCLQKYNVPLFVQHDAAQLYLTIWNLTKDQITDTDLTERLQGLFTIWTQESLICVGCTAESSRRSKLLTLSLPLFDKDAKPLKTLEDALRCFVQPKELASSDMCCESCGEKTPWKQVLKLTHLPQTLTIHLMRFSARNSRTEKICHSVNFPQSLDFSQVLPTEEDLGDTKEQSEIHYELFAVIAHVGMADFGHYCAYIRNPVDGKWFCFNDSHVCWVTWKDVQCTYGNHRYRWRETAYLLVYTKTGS
Assay: High-throughput screening, ISG15ct-RhoMP, single dose 1.25 µM
Type: biochemical, murine
Conditions: mUSP18 %inhibition

[1] = carboxylic acid (CA) building block alone, read-out: %inh CA only
[2] = carboxylic acid (CA) with coupling reagents DIC/HOBT, read-out: %inh CA + DIC/HOBT

| Compound | inhibition at 1.25 µM [1] [%] | inhibition at 1.25 µM [2] [%] |
| --- | --- | --- |
| CN(Cc1cccnc1)S(=O)(=O)c1cc(C(=O)O)n(C)c1 [CA203] | 0.22 | 4.09 |
| O=C(O)c1cnc(-c2cccs2)s1 [CA192] | 11.7 | 0.91 |
| O=C(O)Cc1cc(-c2ccccc2)on1 [CA098] | 21.6 | 14.7 |
| O=C(O)Cc1ccc(S(=O)(=O)N2CCCC2)s1 [CA099] | 21.7 | 15.6 |
| O=C(O)c1ccc2c(c1)OCO2 [CA083] | -4.98 | -14.2 |
| O=C(O)CCN1C(=O)C=CC1=O [CA011] | 7.63 | -2.16 |
| NS(=O)(=O)c1ccc(-c2cccc(C(F)(F)F)c2)c(C(=O)O)c1 [CA103] | 11.4 | 12.3 |
| O=C(O)C(Cc1c[nH]cn1)NS(=O)(=O)c1ccc(Cl)cc1 (centres unmarked) [CA091] | 20.4 | 8.3 |
| O=C(O)c1nccc2ccccc12 [CA030] | -2.62 | -9.45 |
| O=C(O)c1ncoc1C1CC1 [CA112] | 13.7 | 16.4 |
| O=C(O)C1CCN(c2ncccn2)CC1 [CA089] | -4.93 | -12.3 |
| O=C(O)c1ccc(B(O)O)cc1 [CA020] | -7.88 | -9.11 |
| O=Cc1cn(CC(=O)O)c2ccccc12 [CA036] | -2.36 | -8.7 |
| O=C(O)CCc1ccccc1Br [CA043] | -0.54 | -8.19 |
| O=C(O)c1c[nH]nc1-c1cccnc1 [CA140] | 9.15 | 7.35 |
| O=C(O)c1csc(-c2cnccn2)n1 [CA142] | 8.67 | 6.39 |
| COc1cc(CC(=O)O)ccc1O [CA050] | -1.29 | -15.5 |
| O=C(O)C1CC(=O)N(CCN2CCOCC2)C1 (centres unmarked) [CA201] | 1.58 | 1.88 |
| Cc1noc(C)c1Cc1ccc(C(=O)O)o1 [CA179] | 2.24 | 4.32 |

| Compound | inhibition at 1.25 µM [1] [%] | inhibition at 1.25 µM [2] [%] |
| --- | --- | --- |
| Cc1nc(CN2CCCC2C(=O)O)no1 (centres unmarked) [CA127] | 2.84 | 5.46 |
| O=C(O)c1cc(-c2ccc(Br)cc2)ns1 [CA165] | 16 | 9.48 |
| O=C(O)CC1=NN(c2ncc(C(F)(F)F)cc2Cl)C(=O)C1 [CA193] | 5.93 | 4.27 |
| O=C(O)c1occc1COc1ccccc1 [CA195] | 11 | 6.35 |
| O=C(NNc1ccc(C(=O)O)cc1)OCC1c2ccccc2-c2ccccc21 [CA035] | 9.05 | 23.4 |
| O=C(O)Cc1ccc([N+](=O)[O-])cc1 [CA012] | -3.85 | -8.78 |
| O=C(O)C1(n2cnnn2)CCOCC1 [CA120] | 11.7 | 5.68 |
| O=C(O)c1cnnn1-c1ccccc1Cl [CA124] | 10.7 | 3.42 |
| O=C(O)c1cn(CC2CCCO2)nn1 (centres unmarked) [CA270] | 7.51 | 8.31 |
| Cc1cc(C(=O)O)ccc1Br [CA028] | -3.46 | -11 |
| Cc1oc(-c2ccco2)nc1CC(=O)O [CA128] | 4.02 | 9.87 |
| O=C(O)[1C@@H]1C[1C@H]1c1ccco1 [CA116] | 14.9 | 4.8 |
| O=C(O)C1CC1 [CA077] | -6.84 | -14.4 |
| O=C(O)c1ccc(-n2ncc(Cl)c(Cl)c2=O)cc1 [CA186] | 20.6 | 9.85 |
| Cn1cc(NS(=O)(=O)c2ccsc2C(=O)O)cn1 [CA137] | 3.97 | 20.1 |
| Cc1cc(C(=O)O)c(C2CC2)s1 [CA175] | 1.19 | 12.1 |
| O=Cc1ccccc1C(=O)O [CA045] | -3.41 | -8.39 |
| Cc1cccc(C(=O)N2CCCCC2C(=O)O)n1 (centres unmarked) [CA152] | 2.22 | 6.16 |

Other lines, results leading:

| inhibition at 1.25 µM [1] [%] | inhibition at 1.25 µM [2] [%] | Compound |
| --- | --- | --- |
| 0.68 | -4.48 | O=C(O)C(c1ccccc1)n1cccc1 (centres unmarked) [CA457] |
| 5.08 | 8.26 | Cc1ccc([1C@@H]2C[1C@H]2C(=O)O)s1 [CA272] |
| -5.77 | -9.23 | O=C(O)c1cnc(Cc2ccc(F)cc2)s1 [CA380] |
| 1.29 | 5.26 | O=C(O)c1sccc1S(=O)(=O)NC1CCCCCC1 [CA367] |
| -3.22 | 5.85 | O=C(O)c1cc(C2CC2)no1 [CA349] |
| -7.25 | -2.38 | O=C(O)C1CCCN(c2ccc(Cl)nn2)C1 (centres unmarked) [CA438] |
| 3.09 | -0.29 | O=C(O)c1cccc(N2CCOCC2)n1 [CA360] |
| 11.3 | -0.35 | Cc1ccc(S(=O)(=O)NCCc2ccc(F)cc2)cc1C(=O)O [CA330] |
| -4.05 | -6.74 | O=C(O)C1CCCN(c2ncccn2)C1 (centres unmarked) [CA411] |
| -1.48 | -1.62 | COc1ccc(C(=O)O)cc1S(=O)(=O)NCCCN1CCOCC1 [CA326] |
| 0.58 | 7.03 | O=C(O)c1ccc(-c2cnco2)cc1 [CA255] |
| 20.5 | 2.25 | O=C(O)C1CN(S(=O)(=O)C2CC2)C1 [CA258] |
| -5.76 | -1.48 | O=C(O)c1cccc(Oc2ccc(Cl)cc2)n1 [CA394] |
| -5.52 | -6.68 | O=C(O)c1cccnc1Oc1ccc(Cl)cc1Cl [CA427] |
| -2.43 | -10.4 | O=C(O)Cc1cnn(Cc2ccccc2)c1 [CA385] |
| 5.6 | 6.49 | O=C(O)c1ccc(OCn2cc(Cl)cn2)cc1 [CA231] |
| 0.43 | 4.83 | COc1ccc(C(=O)O)cc1S(=O)(=O)N(C)CCc1cccnc1 [CA373] |
| -3.12 | 0.58 | O=C(O)c1ncn(-c2ccccc2)n1 [CA437] |
| 4.42 | 14.8 | O=C(O)c1ccc(Oc2cccc(Cl)c2)cn1 [CA351] |
| -2.93 | 2.57 | Cc1ccc(Oc2ccc(C(=O)O)nc2)cc1 [CA398] |
| 7.93 | -2.82 | Cc1nc(-c2ccco2)ccc1C(=O)O [CA331] |
| 3.18 | -2.42 | O=C(O)CC1(n2cnnn2)CCOCC1 [CA310] |
| 3.75 | -3.62 | O=C(O)c1ccnn1C1CCC1 [CA316] |

| inhibition at 1.25 µM [1] [%] | inhibition at 1.25 µM [2] [%] | Compound |
| --- | --- | --- |
| 1.66 | -0.9 | CN(Cc1ccccc1)C(=O)N1CCC(C(=O)O)CC1 [CA333] |
| -0.67 | 11.7 | Cn1nc(C(=O)O)cc1-c1cccnc1 [CA256] |
| 7.6 | -0.51 | O=C(O)c1nc(C2CC2)ncc1Br [CA338] |
| 9.03 | 3.68 | O=C(O)c1cc(Cl)nc(N2CCCC2)c1 [CA244] |
| 7.83 | 6.83 | O=C(O)c1cnn(-c2cccc(Br)c2)c1 [CA240] |
| -2.14 | -1.07 | O=C(O)c1ccn(-c2ccc(C(F)(F)F)cn2)n1 [CA319] |
| 3.38 | 3.8 | O=C(O)C1(c2cccs2)CC1 [CA222] |
| 7.41 | -1.93 | O=C(O)c1ccc(Cn2cccn2)s1 [CA355] |
| 2.95 | 1.55 | Cc1noc(C)c1S(=O)(=O)N1CCCC1C(=O)O (centres unmarked) [CA342] |
| -5.24 | 4.15 | Cc1ccccc1-n1cc(C(=O)O)cn1 [CA429] |
| -0.48 | -0.48 | O=C(O)C(c1ccccc1)n1cnnn1 (centres unmarked) [CA225] |
| -2.04 | 0.0181 | O=C(O)C1CN(C(=O)OCc2ccccc2)CCO1 (centres unmarked) [CA300] |
| 3.67 | -3.27 | COc1ccc(CN2CCC2C(=O)O)cc1 (centres unmarked) [CA312] |
| -0.54 | -0.53 | O=C(O)c1nc(OCC2CC2)ccc1Cl [CA322] |
| 7.65 | 3.99 | O=C(O)C1COCCN1C(=O)OCc1ccccc1 (centres unmarked) [CA265] |
| 6.36 | 0.58 | COc1ccc(C(=O)O)cc1S(=O)(=O)N1CCCCCC1 [CA217] |
| -1.76 | 7.93 | O=C(O)c1cccnc1-n1cncn1 [CA375] |
| 9.87 | -3.65 | Cc1nc(COc2ccccc2C(=O)O)no1 [CA307] |
| 5.77 | -5.31 | Cc1nn(-c2cccnc2)nc1C(=O)O [CA314] |
| 2.13 | -7.19 | Cc1oc(-c2ccsc2)nc1CC(=O)O [CA425] |
| -0.61 | -6.87 | Cc1ccc(C=CS(=O)(=O)N2CCC(C(=O)O)CC2)cc1 [CA426] |
| -0.25 | -2.62 | Cn1ccnc1CN1CCC(C(=O)O)CC1 [CA348] |
